# Reference: patent US20250115598A1 (Anaxis Pharma Pty Ltd, priority 2021, published 2025)
# Legend:
# human RIPK1 = human RIPK1 (Homo sapiens (Human), UniProt Q13546); test: KINOMEscan binding assay, human RIPK1; settings: Table 21
# Description: (§1) Binding affinity of the test compounds for human MLKL (full length), mouse MLKL (full length), human RIPK1 and human RIPK3 was determined using the KINOMEscan™ technology developed by DiscoverX (USA; http://www.discoverx.com). The assay was conducted according to manufacturer instructions.
# (§2) Kinase assays. For most assays, kinase-tagged T7 phage strains were grown in parallel in 24-well blocks in an E. coli host derived from the BL21 strain. E. coli were grown to log-phase and infected with T7 phage from a frozen stock (multiplicity of infection=0.4) and incubated with shaking at 32° C. until lysis (90-150 minutes). The lysates were centrifuged (6,000×g) and filtered (0.2 μm) to remove cell debris. The remaining kinases were produced in HEK-293 cells and subsequently tagged with DNA for qPCR detection. […] The liganded beads were blocked with excess biotin and washed with blocking buffer (SeaBlock (Pierce), 1% BSA, 0.05% Tween 20, 1 mM DTT) to remove unbound ligand and to reduce non-specific phage binding. […] All reactions were performed in polypropylene 384-well plates in a final volume of 20 μL. […] The kinase concentration in the eluates was measured by qPCR.
# (§3) An 11-point 3-fold serial dilution of each test compound was prepared in 100% DMSO at 100× final test concentration and subsequently diluted to 1× in the assay (final DMSO concentration=1%). Most Kos were determined using a compound top concentration=30,000 nM.
# (§4) KD for each test compound was calculated with a standard dose-response curve using the Hill equation (equation (1)): […]
# (§5) The Hill Slope was set to −1.
# (§6) Curves were fitted using a non-linear least square fit with the Levenberg-Marquardt algorithm.
# human RIPK3 = human RIPK3 (Homo sapiens (Human), UniProt Q9Y572); test: KINOMEscan binding assay, human RIPK3; settings: Table 21
# Sequence of human RIPK3 (Q9Y572 whole entry): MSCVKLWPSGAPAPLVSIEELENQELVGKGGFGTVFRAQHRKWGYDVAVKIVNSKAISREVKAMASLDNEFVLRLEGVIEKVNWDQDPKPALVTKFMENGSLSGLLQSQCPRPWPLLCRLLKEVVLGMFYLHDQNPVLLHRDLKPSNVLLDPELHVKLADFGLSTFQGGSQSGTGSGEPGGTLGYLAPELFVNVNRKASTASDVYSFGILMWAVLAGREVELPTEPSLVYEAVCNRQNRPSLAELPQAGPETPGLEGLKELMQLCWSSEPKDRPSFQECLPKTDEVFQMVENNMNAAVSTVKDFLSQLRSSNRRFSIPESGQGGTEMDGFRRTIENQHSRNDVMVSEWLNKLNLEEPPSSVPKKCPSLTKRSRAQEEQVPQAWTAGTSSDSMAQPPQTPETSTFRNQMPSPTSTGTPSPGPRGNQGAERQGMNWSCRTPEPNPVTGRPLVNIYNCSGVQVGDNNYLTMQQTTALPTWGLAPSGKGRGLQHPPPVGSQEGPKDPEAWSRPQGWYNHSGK
# Description: as §1, §2, §3, §4, §5, §6
# human MLKL (full length) = human MLKL (full length) (Homo sapiens (Human), UniProt Q8NB16); test: KINOMEscan binding assay, human MLKL (full length); settings: hMLKL, Table 25; read-out: MLKL (KD)
# Sequence of human MLKL (full length) (Q8NB16 whole entry): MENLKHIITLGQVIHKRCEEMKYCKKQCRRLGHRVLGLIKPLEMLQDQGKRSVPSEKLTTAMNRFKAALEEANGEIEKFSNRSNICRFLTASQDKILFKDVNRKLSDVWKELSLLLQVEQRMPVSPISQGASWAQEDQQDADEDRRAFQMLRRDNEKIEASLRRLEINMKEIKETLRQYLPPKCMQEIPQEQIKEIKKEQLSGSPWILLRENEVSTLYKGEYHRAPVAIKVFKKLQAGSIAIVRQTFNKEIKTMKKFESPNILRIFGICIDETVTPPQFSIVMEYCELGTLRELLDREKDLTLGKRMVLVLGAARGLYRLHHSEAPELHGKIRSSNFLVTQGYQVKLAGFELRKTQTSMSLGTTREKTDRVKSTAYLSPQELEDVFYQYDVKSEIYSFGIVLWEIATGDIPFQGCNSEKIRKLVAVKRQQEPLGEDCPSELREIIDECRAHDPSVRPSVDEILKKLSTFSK
# Description: as §1, §2, §3, §4, §5, §6
# Sequence of human RIPK1 (Q13546 whole entry): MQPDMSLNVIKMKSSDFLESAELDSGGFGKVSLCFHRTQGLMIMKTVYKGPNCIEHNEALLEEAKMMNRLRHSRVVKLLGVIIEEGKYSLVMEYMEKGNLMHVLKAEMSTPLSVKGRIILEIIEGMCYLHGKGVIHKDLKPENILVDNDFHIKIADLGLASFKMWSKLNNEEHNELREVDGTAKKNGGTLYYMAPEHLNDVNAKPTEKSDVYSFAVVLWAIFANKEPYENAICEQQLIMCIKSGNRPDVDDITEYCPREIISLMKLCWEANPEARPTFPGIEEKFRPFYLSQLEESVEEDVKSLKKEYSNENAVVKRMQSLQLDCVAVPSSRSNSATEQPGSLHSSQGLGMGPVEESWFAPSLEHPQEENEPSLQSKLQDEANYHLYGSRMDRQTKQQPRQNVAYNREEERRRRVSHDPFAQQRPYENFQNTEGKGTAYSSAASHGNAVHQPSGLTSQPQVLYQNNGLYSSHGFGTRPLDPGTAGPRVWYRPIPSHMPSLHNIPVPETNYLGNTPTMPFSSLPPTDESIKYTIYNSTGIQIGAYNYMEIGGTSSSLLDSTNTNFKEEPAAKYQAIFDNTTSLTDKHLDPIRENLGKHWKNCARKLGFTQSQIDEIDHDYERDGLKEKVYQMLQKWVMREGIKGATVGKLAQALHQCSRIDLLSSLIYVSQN
SMILES,Kd (human RIPK1) [µM],Kd (human RIPK3) [µM],Kd (human MLKL (full length)) [µM]
"Cc1noc(C)c1-c1cnc(N)c2c(-c3ccc(NS(=O)(=O)C(F)F)c(O[C@@H](C)c4ccc(F)cc4)c3)nn(C)c12 [Compound 33, (S)-N-(4-(4-amino-7-(3,5-dimethylisoxazol-4-yl)-1-methyl-1H-pyrazolo[4,3-c]pyridin-3-yl)-2-(1-(4-fluorophenyl)ethoxy)phenyl)-1,1-difluoromethanesulfonamide]",> 10,> 10,
"C[C@H](Oc1cc(-c2nn(C)c3c(-c4ccccc4)cnc(N)c23)ccc1NS(=O)(=O)C(F)F)c1ccc(F)cc1 [Compound 86, (S)-N-(4-(4-amino-1-methyl-7-phenyl-1H-pyrazolo[4,3-c]pyridin-3-yl)-2-(1-(4-fluorophenyl)ethoxy)phenyl)-1,1-difluoromethanesulfonamide]",> 10,> 10,
"CC1CNCC(n2cc(-c3cnc(N)c4c(-c5ccc(NS(=O)(=O)C(F)F)c(O[C@@H](C)c6ccc(F)cc6)c5)nn(C)c34)cn2)C1 (stereo partly drawn) [Compound 95, N-(4-(4-amino-1-methyl-7-(1-(5-methylpiperidin-3-yl)-1H-pyrazol-4-yl)-1H-pyrazolo[4,3-c]pyridin-3-yl)-2-((S)-1-(4-fluorophenyl)ethoxy)phenyl)-1,1-difluoromethane-sulfonamide]",> 10,> 10,
"Cc1ncsc1-c1ccc(CNC(=O)[C@@H]2C[C@@H](O)CN2C(=O)[C@@H](NC(=O)CCCCN2CCC(C#Cc3cnc(N)c4c(-c5ccc(NS(=O)(=O)C(F)F)c(O[C@@H](C)c6ccc(F)cc6)c5)nn(C)c34)CC2)C(C)(C)C)cc1 [Compound 1063, (2S,4R)-1-[(2S)-2-{5-[4-(2-{4-amino-3-[4-(difluoromethanesulfonamido)-3-[(1S)-1-(4-fluorophenyl)ethoxy]phenyl]-1-methyl-1H-pyrazolo[4,3-c]pyridin-7-yl}ethynyl)piperidin-1-yl]pentanamido}-3,3-dimethylbutanoyl]-4-hydroxy-N-{[4-(4-methyl-1,3-thiazol-5-yl)phenyl]methyl}pyrrolidine-2-carboxamide]",,,< 0.01

# Further lines, results first:
Kd (human RIPK1) [µM],Kd (human RIPK3) [µM],Kd (human MLKL (full length)) [µM],SMILES
> 10,> 10,,"COCC(Oc1cc(-c2nn(C)c3c(-c4cnn(C5CCN(C)CC5)c4)cnc(N)c23)ccc1NS(=O)(=O)C(F)F)c1ccc(F)cc1 (stereo not drawn) [Compound 139, N-(4-(4-amino-1-methyl-7-(1-(1-methyl-piperidin-4-yl)-1H-pyrazol-4-yl)-1H-pyrazolo[4,3-c]pyridin-3-yl)-2-(1-(4-fluorophenyl)-2-methoxyethoxy)phe-nyl)-1,1-difluoro-methanesulfonamide]"
> 10,> 10,,"COC[C@@H](Oc1cc(-c2nn(C)c3c(-c4cnn(C5CCOCC5)c4)cnc(N)c23)ccc1NS(=O)(=O)C(F)F)c1ccc(F)cc1 [Compound 112, (S)—N-(4-(4-amino-1-methyl-7-(1-(tetrahydro-2H-pyran-4-yl)-1H-pyrazol-4-yl)-1H-pyrazolo[4,3-c]pyridin-3-yl)-2-(1-(4-fluorophenyl)-2-methoxyethoxy)phenyl)-1,1-difluoromethanesulfonamide]"
> 10,> 10,,"C[C@H](Oc1cc(-c2nn(C)c3c(-c4cnn(C5CCC(F)(F)CC5)c4)cnc(N)c23)ccc1NS(=O)(=O)C(F)F)c1ccc(F)cc1 [Compound 146, (S)-N-(4-(4-amino-7-(1-(4,4-difluorocyclohexyl)-1H-pyrazol-4-yl)-1-methyl-1H-pyrazolo[4,3-c]pyridin-3-yl)-2-(1-(4-fluorophenyl)ethoxy)phenyl)-1,1-difluoromethanesulfonamide]"
> 10,> 10,,"C[C@H](Oc1cc(-c2nn(C)c3c(-c4cnn(C5CC6(C5)CN(C)C6)c4)cnc(N)c23)ccc1NS(=O)(=O)C(F)F)c1ccc(F)cc1 [Compound 99, (S)-N-(4-(4-amino-1-methyl-7-(1-(2-methyl-2-azaspiro[3.3]heptan-6-yl)-1H-pyrazol-4-yl)-1H-pyrazolo[4,3-c]pyridin-3-yl)-2-(1-(4-fluorophenyl)eth-oxy)phenyl)-1,1-difluoromethane-sulfonamide]"
